Here are results for 13 compounds from patent US11760758B2 (The Trustees of Columbia University in the City of New York, priority 2018, dated 2023).

Assay [1] has as its target T1, human MOR (Homo sapiens, UniProt P35372).
T1 construct: host or cells: HEK-293T
Nature of the assay: BRET functional assay for G protein activation at hMOR. The class given is cell-based. The settings on record: for Agonist activity at hMOR (in words): compared to DAMGO. Background: Bioluminescence resonance energy transfer reports proximity on the nanometre scale.

Assay [2] deals with T1, human MOR. As to conditions: Kruegel, et al. 2016; cited from earlier work.
The target in assay [3] is T2, mouse DOR (Mus musculus, UniProt P32300).
T2 construct: expressed in transfected cells; membranes
Nature of the assay: Radioligand competition binding ([125I]BNtxA), CHO membranes, DOR. As to conditions: for Ki: mean +/- SE, n = 3, CHO transfected with mouse opioid receptors. In general terms: In a radioligand displacement assay an active substance lowers the binding of a labelled ligand.

Assay [4] concerns the target T3, mouse KOR (Mus musculus, UniProt P33534).
T3 construct: expressed in transfected cells; membranes
The experiment in a line: Radioligand competition binding ([125I]BNtxA), CHO membranes, KOR. As to conditions: for Ki: mean +/- SE, n = 3, CHO transfected with mouse opioid receptors.

Assay [5] concerns the target T4, mouse MOR (Mus musculus, UniProt P42866). The experiment in a line: Radioligand competition binding ([125I]BNtxA), CHO membranes, MOR. As to conditions: for Ki: mean +/- SE, n = 3, CHO transfected with mouse opioid receptors.
The target in assay [6] is T4, mouse MOR. The experiment in a line: cAMP sensor CAMYEL functional assay at mMOR. The assay is classed as cell-based. The arrangement: host or cells: HEK-293T. The settings on record: for Agonist activity at mMOR (in words): mMOR CAMYEL assay.
[7] abbreviates: Table 2, MG-EG series, hMOR G protein BRET, normalized to DAMGO Emax = 100%.
The mark [8] stands for this setting: Table 1, mitragynine series, hMOR G protein BRET, normalized to DAMGO Emax = 100%.
[9] abbreviates: EC50 (nM), Table 1, mitragynine series, hMOR G protein BRET, 95% confidence limits in brackets.
The mark [10] stands for this setting: Table 3, 7-OH series, hMOR G protein BRET, normalized to DAMGO Emax = 100%.

Read-outs that look alike come from different tables or passages of the source.

By EC50 is commonly meant the midpoint of the concentration-response curve. The term Emax denotes the maximal effect, on the per cent scale that the assay sets. In assay [1] (EC50 (nM), Table 2, MG-EG series, hMOR G protein BRET, 95% confidence limits in brackets), `CC[C@@H]1CN2CC[C@@]34OCCO[C@@]3(Nc3cccc(OC)c34)[C@@H]2C[C@@H]1/C(=C\OC)C(=O)OC` [Compound 1, mitragynine-ethylene glycol adduct, reference compound] returned an EC50 of 14.8 nM. In assay [1] (setting [7]), this compound returned an Emax of 56.2%. Besides, the “Agonist activity at hMOR (in words)” value in assay [1] (hMOR G protein BRET) is given as “partial agonist”.

`CC[C@@H]1CN2CC[C@@]34OCCO[C@@]3(Nc3cc(F)cc(OC)c34)[C@@H]2C[C@@H]1/C(=C\OC)C(=O)OC` [Compound 2, 11-Fluoromitragynine-ethylene glycol adduct] had an Emax in assay [1] (setting [7]) below 20%. In assay [1] (hMOR G protein BRET), the “Agonist activity at hMOR (in words)” value is “negligible agonist activity”.

The compound `CC[C@@H]1CN2CC[C@@]34OCCO[C@@]3(Nc3cc(Cl)cc(OC)c34)[C@@H]2C[C@@H]1/C(=C\OC)C(=O)OC` [Compound 3, C11-Chloromitragynine-ethylene glycol adduct] showed a maximal effect (Emax) in assay [1] (setting [7]) below 20%. The “Agonist activity at hMOR (in words)” value in assay [1] (hMOR G protein BRET) is recorded as “negligible agonist activity”.

Regarding `CC[C@@H]1CN2CC[C@@]34OCCO[C@@]3(Nc3cc(Br)cc(OC)c34)[C@@H]2C[C@@H]1/C(=C\OC)C(=O)OC` [Compound 4, 11-bromo-MG-EG], in assay [1] (setting [7]), the Emax was below 20%. Also, the “Agonist activity at hMOR (in words)” value in assay [1] (hMOR G protein BRET) is “negligible agonist activity”.

In the case of `CC[C@@H]1CN2CC[C@@]34OCCO[C@@]3(Nc3cc(O)cc(OC)c34)[C@@H]2C[C@@H]1/C(=C\OC)C(=O)OC` [Compound 6, 11-hydroxy-MG-EG], in assay [1], the EC50 is 11.3 nM and the Emax was determined as 67.4%.

Turning to `CC[C@@H]1CN2CCc3c([nH]c4cccc(OC)c34)[C@@H]2C[C@@H]1/C(=C\OC)C(=O)OC` [Compound 12, mitragynine, reference compound], in assay [2], the “Agonist activity at hMOR (in words), previously shown” value is “partial agonist”. The compound further returned an Emax in assay [1] (setting [8]) of 26.5%.

Consider `CC[C@@H]1CN2CCc3c([nH]c4cc(F)cc(OC)c34)[C@@H]2C[C@@H]1/C(=C\OC)C(=O)OC` [Compound 13, 11-fluoro-MG], for which the EC50 in assay [1] (setting [9]) was found to be 81.5 nM. In assay [1] (setting [8]), this compound returned an Emax of 49%.

For `CC[C@@H]1CN2CCc3c([nH]c4cc(Cl)cc(OC)c34)[C@@H]2CC1/C(=C\OC)C(=O)OC` (stereo partly shown) [Compound 14, 11-Chloromitragynine], the EC50 in assay [1] (setting [9]) amounted to 327 nM. Also, the Emax in assay [1] (setting [8]) was 33.4%.

For `CC[C@@H]1CN2CCc3c([nH]c4cc(Br)cc(OC)c34)[C@@H]2C[C@@H]1/C(=C\OC)C(=O)OC` [Compound 15, 11-bromo-MG], the Emax in assay [1] (setting [8]) is below 20%. Moreover, the “Agonist activity at hMOR (in words)” value in assay [1] (hMOR G protein BRET) is on record as “no/negligible agonist activity”.

For orientation: Ki means a dissociation constant, usually derived from enzyme kinetics or from competition with a known ligand. Turning to `CC[C@@H]1CN2CC[C@@]3(O)C(=Nc4cccc(OC)c43)[C@@H]2C[C@@H]1/C(=C\OC)C(=O)OC` [Compound 23, 7-hydroxymitragynine, reference compound], the Ki came out at 88.5 ± 9.86 nM in assay [3], 119 ± 2.14 nM in assay [4] and 21.4 ± 0.81 nM in assay [5]. Also, the Emax came out at 88% in assay [1] (setting [10]) and 92.4% in assay [6]. It took 13 nM to reach a half-maximal effect in assay [6] (EC50).

As for `CC[C@@H]1CN2CC[C@@]3(O)C(=Nc4cc(F)cc(OC)c43)[C@@H]2C[C@@H]1/C(=C\OC)C(=O)OC` [Compound 24, 11-Fluoro-7-hydroxymitragynine], the Ki in assay [3] was 35.8 ± 2.01 nM; in assay [4], 21 ± 3.26 nM; in assay [5], 13.7 ± 1.01 nM. The “Affinity for DOR relative to 7-OH, 23” value in assay [3] (ratio of affinity vs 7-OH (23)) is on record as above 2 fold. Besides, the EC50 came out at 3.98 nM in assay [1] (EC50 (nM), Table 3, 7-OH series, hMOR G protein BRET, 95% confidence limits in brackets) and 15.1 nM in assay [6] (Table 5, 7-OH series, mMOR CAMYEL cAMP assay, 95% confidence limits in brackets, read-out: EC50). In addition, the Emax came out at 47% in assay [1] (setting [10]) and 63.8% in assay [6]. The “Affinity at KOR relative to parent compound 23” value in assay [4] (ratio of affinity vs 7-OH (23)) is reported as “six times greater”. Moreover, the “Gain in affinity at mMOR relative to parent 7-OH, 23” value in assay [5] (ratio of affinity vs 7-OH (23)) is “approximately 2 fold”.

On to `CC[C@@H]1CN2CC[C@@]3(O)C(=Nc4cc(Cl)cc(OC)c43)[C@@H]2C[C@@H]1/C(=C\OC)C(=O)OC` [Compound 25, 11-chloro-7-OH], for which the values for the Ki in assay [3], in assay [4] and in assay [5] were 47.2 ± 2.36 nM, 30.6 ± 11.3 nM and 27.1 ± 1.12 nM, respectively. In addition, the Emax in assay [1] (setting [10]) and in assay [6] was below 20% each time. For the same compound, in assay [1] (hMOR G protein BRET), the “Agonist activity at hMOR (in words)” value was “agonist activity was abolished”. Further, the “Agonist activity at mMOR (in words)” value in assay [6] is reported as “not agonists”.

For the compound `CC[C@@H]1CN2CC[C@@]3(O)C(=Nc4cc(Br)cc(OC)c43)[C@@H]2C[C@@H]1/C(=C\OC)C(=O)OC` [Compound 26, 11-bromo-7-OH], the Ki in assay [3] turned out to be 57.7 ± 6.66 nM; in assay [4] it was 81.1 ± 7.11 nM; in assay [5], 32.4 ± 1.42 nM. Besides, the Emax in assay [1] (setting [10]) and in assay [6] was below 20% each time. Besides, in assay [1] (hMOR G protein BRET), the “Agonist activity at hMOR (in words)” value was “agonist activity was abolished”. In addition, the “Agonist activity at mMOR (in words)” value in assay [6] is given as “not agonists”.
